Reference: US20180078615A1, “USE OF CCL2 TO INHIBIT ABNORMAL UTERINE BLEEDING” (UNIVERSITY OF SOUTH FLORIDA, priority 2015, published 2018)

Key:
[1] = test system: VSMCs; test: Whole genome microarray analysis (Illumina HumanHT-12 v4) of cultured VSMCs treated with progestins; type: cell-based, human; conditions: VSMCs treated by ETO
Text: Cultured VSMCs (n=3) treated with control medium or medium containing medroxyprogesterone acetate (MPA, 10^−7 M), or etonogestrel (ETO, 10^−7 M) were processed for whole genome analyses using Illumina Human microarray kit. After qRT-PCR confirmation of several up and down regulated genes from microarray data, Ingenuity Pathway Analysis (IPA) determined relevant upstream signaling of LAPC altered gene expression. To investigate the role of genes and relevant signaling molecules identified by IPA, VSMCs (n=3) treated with MPA or ETO±1 or 10 ng/ml recombinant CCL2 (rCCL2)±STAT1 inhibitor, 5′-methyl-thioadenosine (MTA, 100 μM) were analyzed by BrdU incorporation proliferation, TUNEL based ELISA apoptosis and Transwell insert migration assays.
VSMCs were thawed and cultured in medium 231 (M231; Life Technologies) with smooth muscle growth supplement (5% FBS; 2 ng/mL human basic fibroblast growth factor, 0.5 ng/mL human epidermal growth factor, 5 ng/mL heparin, 0.2 μg/mL insulin and 5 μg/mL BSA; Life Technologies) with 100 U/mL penicillin, 100 μg/mL streptomycin, 0.25 μg/mL fungizone. Confluent VSMCs were washed twice with 1×PBS to remove residual serum, passaged in 96-well or 6-well plates and incubated in parallel in M231 with 1% charcoal striped FBS with 0.1% ethanol (vehicle, control) or 10^−7 M MPA (Sigma-Aldrich) or 10^−7 M ETO (Organon) or 10^−7 M P4 (Sigma-Aldrich) for 15 min, 6, 48, and 72 h. VSMCs were then washed with ice-cold PBS and stored at −80° C. for further RNA and protein analyses.
Total RNA was isolated using Qiagen miRNeasy Mini Kit (Qiagen) and RNeasy MinElute Cleanup Kit (Qiagen). The quality of isolated RNAs was confirmed using an Agilent 2100 Bioanalyzer. Microarray analysis was limited to those specimens in which RNA Integrity Number exceeded 8. Microarray processes were performed in the Keck Biotechnology Resource Laboratory at Yale University (New Haven, Conn.) using Illumina Human HT-12 v4 BeadChip (Illumina). Raw data without normalization were analyzed by GeneSpring GX12.5 software (Agilent Technologies-Silicon Genetics). Normalization was performed as described (35). Genes with a fold-change >1.25 and a P value<0.05 were considered differentially expressed. Ingenuity Pathway Analysis (IPA) software (Qiagen) explored molecular and biological networks related to differentially expressed genes.

[2] = test system: VSMCs; test: Transwell insert migration assay; type: cell-based, human; conditions: 12-h incubation, 10^−7 M; control 48.4%
Description: VSMCs (75,000 cells/200 μL) were suspended in M231 containing 1% charcoal striped FBS and either 0.1% ethanol (vehicle control) or the corresponding steroids and seeded onto insert wells (transwell filter with 12-μm pores; EMD Millipore). The inserts were then placed in 24-well plates containing 500 μL M231 with 1% charcoal striped FBS. After 12 h, cells remaining on the upper surface of the filter were removed with a cotton swab. Migrated cells were trypsinized, centrifuged, and resuspended in 200 μL of M231 medium. The cell suspensions were mixed with 200 μL 10% ethanol containing 0.4% Trypan blue dye and the live cell number was counted by Countess Automated Cell Counter (Invitrogen). See further details in SI Materials and Methods.
Cultured VSMCs were grown in T-75 cell culture flasks in M231 (Life Technologies) with smooth muscle growth supplement (Life Technologies) with 100 U/mL penicillin, 100 μg/mL streptomycin, 0.25 μg/mL fungizone. Confluent VSMCs were washed twice with 1×PBS to remove residual serum, and then trypsinized, resuspended (75,000 cells per 200 μL per well) in M231 with 1% charcoal striped FBS with 0.1% ethanol (vehicle, control), 10^−7 M MPA (Sigma-Aldrich), 10^−7 M ETO (Organon), or 10^−7 M P4 (Sigma-Aldrich)±rCCL2 (R&D Systems) and seeded on insert wells (transwell filter with 12-μm pores; EMD Millipore), which were then placed in 24-well plates containing 500 μL M231 with 1% charcoal striped FBS. After 12 h, cells remaining on the upper surface of the filter were removed with a cotton swab. Migrated cells attached to the lower surface of each insert or to the surface of lower wells were collected by trypsinization, followed by centrifugation and resuspension in 200 μL of M231 medium. The cell suspensions were mixed with 200 μL 10% ethanol containing 0.4% Trypan blue dye (selectively stains only dead cells blue, whereas live cells with intact cell membranes remain unstained) for 5 min. A mixture of 100 μL M231 and 100 μL 10% ethanol containing 0.4% Trypan blue dye was used as a negative control. To detect live cell numbers, 10 μL of final cell/Trypan blue dye suspension from each treatment condition was pipetted into Countess Cell Counting Chamber Slide and counted by using Countess Automated Cell Counter (Invitrogen). The counting procedure was performed in duplicate.

C#C[C@]1(O)CC[C@H]2[C@@H]3CCC4=CC(=O)CC[C@@H]4[C@H]3C(=C)C[C@@]21CC [ETO, etonogestrel]
Fold-change, ABI gene family, member 3 (NESH) binding protein (ABI3BP) [1]: −1.636
Fold-change, Actin, γ 2, smooth muscle, enteric (ACTG2) [1]: 1.514
Fold-change, Alcohol dehydrogenase 1A (class I), alpha polypeptide (ADH1A) [1]: 1.54
Fold-change, Bone morphogenetic protein 6 (BMP6) [1]: 1.467
Fold-change, Chemokine (C-C motif) ligand 2 (CCL2) [1]: −2.211
Fold-change, Claudin 11 (oligodendrocyte transmembrane protein) (CLDN11) [1]: −1.544
Fold-change, Collagen, type VIII, α 1, transcript variant 2 (COL8A1) [1]: 1.44
Fold-change, Complement factor B (CFB) [1]: −1.835
Fold-change, Cysteine-rich secretory protein LCCL domain containing 2, (CRISPLD2) [1]: 1.661
Fold-change, DNA-damage regulated autophagy modulator 1 (DRAM1) [1]: −1.535
Fold-change, Decorin, transcript variant A2, (DCN) [1]: 1.762
Fold-change, EF-hand domain family, member D1 (EFHD1) [1]: 1.471
Fold-change, Endoglin (Osler-Rendu-Weber syndrome 1) (ENG) [1]: −1.428
Fold-change, Filaggrin (FLG) [1]: −1.59
Fold-change, Growth arrest-specific 6 (GAS6) [1]: 1.4661
Fold-change, H19, imprinted maternally expressed transcript noncoding RNA (H19) [1]: 2.497
Fold-change, Hypothetical protein FLJ40504 (FLJ40504) [1]: −1.625
Fold-change, Indolethylamine N-methyltransferase (INMT) [1]: 1.443
Fold-change, Intelectin 2 (ITLN2) [1]: 1.655
Fold-change, LY6/PLAUR domain containing 1, transcript variant 1 (LYPD1) [1]: −1.447
Fold-change, Latexin (LXN) [1]: −1.779
Fold-change, Leptin (obesity homolog, mouse) (LEP) [1]: 1.602
Fold-change, Mitogen-activated protein kinase kinase 2 (MAP2K2) [1]: −1.437
Fold-change, PREDICTED: miscRNA (LOC399965) [1]: −1.534
Fold-change, PREDICTED: similar to LYPDC1 protein (LOC100134073) [1]: −1.536
Fold-change, PREDICTED: similar to filaggrin (LOC730833) [1]: −1.474
Fold-change, Pleckstrin homology-like domain, family A, member 1 (PHLDA1) [1]: −1.487
Fold-change, Potassium voltage-gated channel, shaker-related subfamily, 0 member 1, transcript variant2 (KCNAB1) [1]: −1.492
Fold-change, Prostaglandin-endoperoxide synthase 1, transcript variant 2 (PTGS1) [1]: 1.555
Fold-change, RAB11 family interacting protein 1 (class I), transcript variant 3, (RAB11FIP1) [1]: 1.55
Fold-change, Retinoic acid receptor responder (tazarotene induced) 1, transcript variant 1, (RARRES1) [1]: −2.146
Fold-change, Retinoic acid receptor responder (tazarotene induced) 1, transcript variant 2, (RARRES1) [1]: −1.809
Fold-change, Superoxide dismutase 2, mitochondrial, transcript variant 2, (SOD2) [1]: −1.778
Fold-change, Thioredoxin domain containing 5, transcript variant 2 (TXNDC5) [1]: 1.429
Fold-change, Transmembrane 4 L six family member 1 (TM4SF1) [1]: −1.467
Fold-change, Transmembrane protein 119 (TMEM119) [1]: 1.448
Fold-change, Wingless-type MMTV integration site family, member 5A (WNT5A) [1]: 1.504
Fold-change, cDNA FLJ20769 fis, clone COL06674 (PREDICTED: Receptor tyrosine kinase-like orphan receptor 1) [1]: 1.528
Fold-change, Matrix Gla protein (MGP) ([1]; table entry 6): 1.581
Fold-change, Matrix Gla protein (MGP) ([1]; table entry 8): 1.554
migration rate [2]: 29.6%
